ChEMBL document CHEMBL1121950, “Species- or isozyme-specific enzyme inhibitors. 9. Selective effects in inhibitions of rat pyruvate kinase isozymes by adenosine 5'-diphosphate derivatives” (J Med Chem, 1982)

Tests used:
[1] = target: Pyruvate kinase PKLR (Rattus norvegicus) (UniProt P12928); assay: Relative inhibitory potency as ratio of kidney and liver pyruvate kinases
[2] = target: Pyruvate kinase PKM (Rattus norvegicus) (UniProt P11980); assay: Ratio of Km(ADP)/Ki or Km for rat muscle pyruvate kinase
Rattus norvegicus [3] = species on record: Rattus norvegicus; assay: Relative inhibitory potency as ratio of muscle and liver pyruvate kinases
[4] = target: Pyruvate kinase PKM (Rattus norvegicus) (UniProt P11980); assay: (§1) Relative half maximal velocity of Pyruvate kinase and Phosphoenolpyruvate
[5] = target: Pyruvate kinase PKLR (Rattus norvegicus) (UniProt P12928); assay: as §1
Rattus norvegicus [6] = species on record: Rattus norvegicus; assay: Relative half maximal velocity of Pyruvate kinase to Phosphoenolpyruvate was determined
[7] = target: Pyruvate kinase PKLR (Rattus norvegicus) (UniProt P12928); assay: Ratio of Km(ADP)/Ki or Km for rat liver pyruvate kinase
[8] = tested on: Nc1nc(N)c2ncn(C3O[C@H](COP(=O)(O)OP(=O)(O)O)[C@@H](O)[C@H]3O)c2n1; assay: (§2) Michaelis-Menten constant for inhibition of pyruvate kinase obtained from rat muscle (PK-M) was determined using ADP as competitive inhibitor
[9] = tested on: CNc1nc(N)c2ncn(C3O[C@H](COP(=O)(O)OP(=O)(O)O)[C@@H](O)[C@H]3O)c2n1; assay: as §2
[10] = tested on: C=CC[C@]1(COP(=O)(O)OP(=O)(O)O)OC(n2cnc3c(N)ncnc32)[C@H](O)[C@@H]1O; assay: as §2
[11] = tested on: CNc1nc2c(N)ncnc2n1C1O[C@H](COP(=O)(O)OP(=O)(O)O)[C@@H](O)[C@H]1O; assay: as §2
[12] = tested on: CC(=O)N(C)CCCCN(C)c1ncnc2c1ncn2[C@@H]1O[C@H](COP(=O)(O)OP(=O)(O)O)[C@@H](O)[C@H]1O; assay: as §2
[13] = tested on: Nc1ncnc2c1ncn2[C@@H]1O[C@H](COP(=O)(O)OP(=O)(O)O)[C@@H](O)[C@H]1O; assay: as §2
[14] = tested on: CSc1nc(N)c2ncn([C@@H]3O[C@H](COP(=O)(O)OP(=O)(O)O)[C@@H](O)[C@H]3O)c2n1; assay: as §2
[15] = tested on: C[C@H](OP(=O)(O)OP(=O)(O)O)[C@H]1OC(n2cnc3c(N)ncnc32)[C@H](O)[C@@H]1O; assay: as §2
[16] = tested on: CO[C@@H]1[C@H](O)[C@@H](COP(=O)(O)OP(=O)(O)O)O[C@H]1n1cnc2c(N)ncnc21; assay: as §2
[17] = tested on: Nc1ncnc2c1nc(Br)n2[C@@H]1O[C@H](COP(=O)(O)OP(=O)(O)O)[C@@H](O)[C@H]1O; assay: as §2
[18] = target: Pyruvate kinase PKM (Rattus norvegicus) (UniProt P11980); assay: as §1; remark: listed apart in the source
[19] = tested on: Nc1nc(N)c2ncn(C3O[C@H](COP(=O)(O)OP(=O)(O)O)[C@@H](O)[C@H]3O)c2n1; assay: (§3) Michaelis-Menten constant for inhibition of pyruvate kinase obtained from rat liver (PK-L) was determined using ADP as competitive inhibitor
[20] = tested on: CNc1nc(N)c2ncn(C3O[C@H](COP(=O)(O)OP(=O)(O)O)[C@@H](O)[C@H]3O)c2n1; assay: as §3
[21] = tested on: C=CC[C@]1(COP(=O)(O)OP(=O)(O)O)OC(n2cnc3c(N)ncnc32)[C@H](O)[C@@H]1O; assay: as §3
[22] = tested on: CNc1nc2c(N)ncnc2n1C1O[C@H](COP(=O)(O)OP(=O)(O)O)[C@@H](O)[C@H]1O; assay: as §3
[23] = tested on: CC(=O)N(C)CCCCN(C)c1ncnc2c1ncn2[C@@H]1O[C@H](COP(=O)(O)OP(=O)(O)O)[C@@H](O)[C@H]1O; assay: as §3
[24] = tested on: Nc1ncnc2c1ncn2[C@@H]1O[C@H](COP(=O)(O)OP(=O)(O)O)[C@@H](O)[C@H]1O; assay: as §3
[25] = tested on: CSc1nc(N)c2ncn([C@@H]3O[C@H](COP(=O)(O)OP(=O)(O)O)[C@@H](O)[C@H]3O)c2n1; assay: as §3
[26] = tested on: C[C@H](OP(=O)(O)OP(=O)(O)O)[C@H]1OC(n2cnc3c(N)ncnc32)[C@H](O)[C@@H]1O; assay: as §3
[27] = tested on: CO[C@@H]1[C@H](O)[C@@H](COP(=O)(O)OP(=O)(O)O)O[C@H]1n1cnc2c(N)ncnc21; assay: as §3
[28] = tested on: Nc1ncnc2c1nc(Br)n2[C@@H]1O[C@H](COP(=O)(O)OP(=O)(O)O)[C@@H](O)[C@H]1O; assay: as §3
[29] = target: Pyruvate kinase PKM (Rattus norvegicus) (UniProt P11980); assay: Ratio of Km(ADP)/Ki or Km for rat muscle pyruvatre kinase; (inhibitory potency at 2.35 mM)

Chain of Pyruvate kinase PKLR (Rattus norvegicus) (P12928 whole entry): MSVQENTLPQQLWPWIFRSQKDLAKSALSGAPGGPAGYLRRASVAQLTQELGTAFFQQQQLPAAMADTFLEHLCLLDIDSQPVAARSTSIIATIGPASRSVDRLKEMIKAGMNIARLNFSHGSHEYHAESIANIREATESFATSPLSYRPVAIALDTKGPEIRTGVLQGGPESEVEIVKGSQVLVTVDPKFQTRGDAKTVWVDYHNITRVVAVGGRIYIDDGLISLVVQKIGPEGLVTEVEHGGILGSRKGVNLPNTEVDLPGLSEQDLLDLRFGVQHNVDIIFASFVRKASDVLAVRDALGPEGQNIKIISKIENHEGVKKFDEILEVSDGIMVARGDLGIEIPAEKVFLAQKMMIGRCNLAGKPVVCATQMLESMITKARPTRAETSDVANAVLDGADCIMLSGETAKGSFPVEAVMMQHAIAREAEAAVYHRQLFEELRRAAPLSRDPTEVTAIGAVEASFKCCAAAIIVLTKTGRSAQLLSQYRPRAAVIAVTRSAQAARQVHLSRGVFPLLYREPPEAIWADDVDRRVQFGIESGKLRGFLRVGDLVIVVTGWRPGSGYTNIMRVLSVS
Chain of Pyruvate kinase PKLR (Rattus norvegicus), P12928 (P12928 whole entry): as above
Chain of Pyruvate kinase PKM (Rattus norvegicus), P11980 (P11980 whole entry): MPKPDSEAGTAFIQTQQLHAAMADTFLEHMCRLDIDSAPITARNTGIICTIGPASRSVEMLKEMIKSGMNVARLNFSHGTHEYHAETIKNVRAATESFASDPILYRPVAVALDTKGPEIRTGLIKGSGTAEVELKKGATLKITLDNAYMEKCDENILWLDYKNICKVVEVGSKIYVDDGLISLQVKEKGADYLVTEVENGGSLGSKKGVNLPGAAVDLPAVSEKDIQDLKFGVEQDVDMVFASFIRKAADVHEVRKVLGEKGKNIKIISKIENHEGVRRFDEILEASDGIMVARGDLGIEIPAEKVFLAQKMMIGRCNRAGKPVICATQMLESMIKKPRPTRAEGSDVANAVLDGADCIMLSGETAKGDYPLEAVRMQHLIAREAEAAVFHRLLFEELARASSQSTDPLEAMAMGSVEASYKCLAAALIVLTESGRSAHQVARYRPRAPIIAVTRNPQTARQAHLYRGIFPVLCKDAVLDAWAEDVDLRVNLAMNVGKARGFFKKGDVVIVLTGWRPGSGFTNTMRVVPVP
Chain of Pyruvate kinase PKM (Rattus norvegicus) (P11980 whole entry): as above

## CO[C@H]1[C@@H](O)[C@H](n2cnc3c(N)ncnc32)O[C@@H]1COP(=O)(O)OP(=O)(O)O
[1]
  Relative inhibitory potency: 7.6
[2]
  Inhibitory potency: 0.056
Rattus norvegicus [3]
  Relative inhibitory potency: 6
[4]
  Relative Vmax: > 0
[5]
  Relative Vmax: > 0
Rattus norvegicus [6]
  Relative Vmax: > 0
[7]
  Inhibitory potency: 0.0094

## Nc1ncnc2c1ncn2[C@@H]1O[C@H](COP(=O)(O)OP(=O)(O)O)[C@@H](O)[C@H]1O
[4]
  Relative Vmax: 100
[5]
  Relative Vmax: 100
Rattus norvegicus [6]
  Relative Vmax: 100

## CC(=O)N(C)CCCCN(C)c1ncnc2c1ncn2[C@@H]1O[C@H](COP(=O)(O)OP(=O)(O)O)[C@@H](O)[C@H]1O
[1]
  Relative inhibitory potency: 0.67
[2]
  Inhibitory potency: 0.14
Rattus norvegicus [3]
  Relative inhibitory potency: 0.33
[7]
  Inhibitory potency: 0.43

## Pyruvate kinase PKM (Rattus norvegicus), P11980
[8]
  Km: 260 µM
[9]
  Km: 190 µM
[10]
  Km: 1300 µM
[11]
  Km: 560 µM
[12]
  Km: 3.6 mM
[13]
  Km: 520 µM
[14]
  Km: 110 µM
[15]
  Km: 2700 µM
[16]
  Km: 700 µM
[17]
  Km: 2900 µM

## C=CC[C@]1(COP(=O)(O)OP(=O)(O)O)OC(n2cnc3c(N)ncnc32)[C@H](O)[C@@H]1O (some centres undefined)
[4]
  Relative Vmax: 7
[5]
  Relative Vmax: 52
Rattus norvegicus [6]
  Relative Vmax: 11

## C[C@@H](OP(=O)(O)OP(=O)(O)O)[C@H]1OC(n2cnc3c(N)ncnc32)[C@H](O)[C@@H]1O (some centres undefined)
[1]
  Relative inhibitory potency: 1.1
[2]
  Inhibitory potency: 0.12
Rattus norvegicus [3]
  Relative inhibitory potency: 2.1
[4]
  Relative Vmax: > 0
[5]
  Relative Vmax: > 0
Rattus norvegicus [6]
  Relative Vmax: > 0
[7]
  Inhibitory potency: 0.056

## CNc1nc(N)c2ncn(C3O[C@H](COP(=O)(O)OP(=O)(O)O)[C@@H](O)[C@H]3O)c2n1 (some centres undefined)
[1]
  Relative inhibitory potency: 1.4
[2]
  Inhibitory potency: 2.7
Rattus norvegicus [3]
  Relative inhibitory potency: 1.1
[4]
  Relative Vmax: 77
[5]
  Relative Vmax: 86
Rattus norvegicus [6]
  Relative Vmax: 85
[7]
  Inhibitory potency: 2.5

## CC1O[C@@H]2[C@H](O1)[C@@H](COP(=O)(O)OP(=O)(O)O)O[C@H]2n1cnc2c(N)ncnc21 (some centres undefined)
[2]
  Inhibitory potency: 0.325
[18]
  Relative Vmax: 0
Rattus norvegicus [3]
  Relative inhibitory potency: 2.3
[4]
  Relative Vmax: 0
[7]
  Inhibitory potency: 0.14

## Pyruvate kinase PKLR (Rattus norvegicus), P12928
[19]
  Km: 90 µM
[20]
  Km: 120 µM
[21]
  Km: 530 µM
[22]
  Km: 160 µM
[23]
  Km: 700 µM
[24]
  Km: 300 µM
[25]
  Km: 61 µM
[26]
  Km: 1300 µM
[27]
  Km: 350 µM
[28]
  Km: 2300 µM

## CNc1nc2c(N)ncnc2n1C1O[C@H](COP(=O)(O)OP(=O)(O)O)[C@@H](O)[C@H]1O (some centres undefined)
[1]
  Relative inhibitory potency: 0.45
[2]
  Inhibitory potency: 0.93
Rattus norvegicus [3]
  Relative inhibitory potency: 0.49
[4]
  Relative Vmax: 55
[5]
  Relative Vmax: 40
Rattus norvegicus [6]
  Relative Vmax: 49
[7]
  Inhibitory potency: 1.9

## CCCNc1nc2c(N)ncnc2n1C1O[C@H](COP(=O)(O)OP(=O)(O)O)[C@@H](O)[C@H]1O (some centres undefined)
[29]
  Inhibitory potency: 0.58
Rattus norvegicus [3]
  Relative inhibitory potency: 3.1
[4]
  Relative Vmax: 0
Rattus norvegicus [6]
  Relative Vmax: 0
[7]
  Inhibitory potency: 0.19

## Nc1ncnc2c1nc(Br)n2[C@@H]1O[C@H](COP(=O)(O)OP(=O)(O)O)[C@@H](O)[C@H]1O
[1]
  Relative inhibitory potency: 1.3
[2]
  Inhibitory potency: 0.18
[18]
  Relative Vmax: 6
Rattus norvegicus [3]
  Relative inhibitory potency: 1.4
[4]
  Relative Vmax: 6
[5]
  Relative Vmax: 14
[7]
  Inhibitory potency: 0.13

## CSc1nc2c(N)ncnc2n1C1O[C@H](COP(=O)(O)OP(=O)(O)O)[C@@H](O)[C@H]1O (some centres undefined)
[1]
  Relative inhibitory potency: 2.5
[2]
  Inhibitory potency: 0.12
Rattus norvegicus [3]
  Relative inhibitory potency: 3
[4]
  Relative Vmax: 0
[5]
  Relative Vmax: 0
Rattus norvegicus [6]
  Relative Vmax: 0
[7]
  Inhibitory potency: 0.04

## CCSc1nc2c(N)ncnc2n1C1O[C@H](COP(=O)(O)OP(=O)(O)O)[C@@H](O)[C@H]1O (some centres undefined)
[1]
  Relative inhibitory potency: 3.6
[2]
  Inhibitory potency: 0.14
Rattus norvegicus [3]
  Relative inhibitory potency: 3.9
[4]
  Relative Vmax: 0
[5]
  Relative Vmax: 0
Rattus norvegicus [6]
  Relative Vmax: 0
[7]
  Inhibitory potency: 0.036

## CO[C@@H]1[C@H](O)[C@@H](COP(=O)(O)OP(=O)(O)O)O[C@H]1n1cnc2c(N)ncnc21
[1]
  Relative inhibitory potency: 1.04
[2]
  Inhibitory potency: 0.74
Rattus norvegicus [3]
  Relative inhibitory potency: 0.86
[4]
  Relative Vmax: 90
[5]
  Relative Vmax: 100
Rattus norvegicus [6]
  Relative Vmax: 94
[7]
  Inhibitory potency: 0.86

## CSc1nc(N)c2ncn([C@@H]3O[C@H](COP(=O)(O)OP(=O)(O)O)[C@@H](O)[C@H]3O)c2n1
[1]
  Relative inhibitory potency: 1.12
[2]
  Inhibitory potency: 4.7
Rattus norvegicus [3]
  Relative inhibitory potency: 0.94
[4]
  Relative Vmax: 77
[5]
  Relative Vmax: 72
Rattus norvegicus [6]
  Relative Vmax: 67
[7]
  Inhibitory potency: 5

## C[C@H](OP(=O)(O)OP(=O)(O)O)[C@H]1OC(n2cnc3c(N)ncnc32)[C@H](O)[C@@H]1O (some centres undefined)
[1]
  Relative inhibitory potency: 0.74
[2]
  Inhibitory potency: 0.19
Rattus norvegicus [3]
  Relative inhibitory potency: 0.83
[4]
  Relative Vmax: 15
[5]
  Relative Vmax: 26
Rattus norvegicus [6]
  Relative Vmax: 15
[7]
  Inhibitory potency: 0.23

## Nc1nc(N)c2ncn(C3O[C@H](COP(=O)(O)OP(=O)(O)O)[C@@H](O)[C@H]3O)c2n1 (some centres undefined)
[1]
  Relative inhibitory potency: 0.61
[2]
  Inhibitory potency: 2
Rattus norvegicus [3]
  Relative inhibitory potency: 0.61
[4]
  Relative Vmax: 77
[5]
  Relative Vmax: 95
Rattus norvegicus [6]
  Relative Vmax: 90
[7]
  Inhibitory potency: 3.3

## CCNc1nc2c(N)ncnc2n1C1O[C@H](COP(=O)(O)OP(=O)(O)O)[C@@H](O)[C@H]1O (some centres undefined)
[1]
  Relative inhibitory potency: 1.2
[2]
  Inhibitory potency: 1
Rattus norvegicus [3]
  Relative inhibitory potency: 7.1
[4]
  Relative Vmax: < 1
[5]
  Relative Vmax: < 1
Rattus norvegicus [6]
  Relative Vmax: 0.7
[7]
  Inhibitory potency: 0.14
